Each compound was assayed against T1, ZAP-70 (Homo sapiens, UniProt P43403) (assay: DELFIA assay (ZAP-70 kinase, phosphorylation of biotinylated poly(glu,tyr))). Conditions: ZAP-70 DELFIA, class symbols; read-out: Activity (IC50 in vitro).
T1 sequence (P43403 1-619): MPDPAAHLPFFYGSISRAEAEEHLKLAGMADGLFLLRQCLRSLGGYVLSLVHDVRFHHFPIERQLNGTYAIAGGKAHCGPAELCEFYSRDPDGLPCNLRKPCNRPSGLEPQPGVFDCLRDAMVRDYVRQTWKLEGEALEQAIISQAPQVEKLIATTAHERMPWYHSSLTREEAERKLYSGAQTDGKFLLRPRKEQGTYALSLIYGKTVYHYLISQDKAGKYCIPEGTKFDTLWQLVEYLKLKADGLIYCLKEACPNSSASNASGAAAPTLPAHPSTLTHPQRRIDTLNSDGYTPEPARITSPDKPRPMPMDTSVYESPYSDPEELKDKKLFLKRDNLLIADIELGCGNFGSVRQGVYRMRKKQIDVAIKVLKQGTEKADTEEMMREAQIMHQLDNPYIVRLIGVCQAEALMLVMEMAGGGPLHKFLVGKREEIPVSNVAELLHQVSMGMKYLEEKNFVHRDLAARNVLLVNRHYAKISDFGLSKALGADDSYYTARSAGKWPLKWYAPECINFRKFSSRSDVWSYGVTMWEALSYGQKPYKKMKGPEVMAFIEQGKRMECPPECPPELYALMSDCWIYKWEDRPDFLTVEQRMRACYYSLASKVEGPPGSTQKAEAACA
Assay type: biochemical
In short: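 3.1 nM ZAP-70 pre-incubated 10 min at room temperature with compound ([…]) and 62.5 nM biotinylated poly(glu,tyr) in 62.5 mM Mops pH 7.0, 12.5 mM MgCl2, 12.5% glycerol, 6.25% DMSO (pre-incubation concentrations); ATP added from 5 mM stock, 30 min reaction, EDTA stop. Phosphorylation read by DELFIA europium anti-phosphotyrosine fluorescence (340/615).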

IC50 [µM]	SMILES
> 10	N#Cc1ccc(-c2ccc3nc(NCc4ccccc4OC(F)(F)F)cc(C(=O)N4CCC[C@H]4CN4CCCC4)c3c2)cc1 [Compound 236]
> 10	N#Cc1ccc(-c2ccc3nc(NCc4cccc(C(F)(F)F)c4F)cc(C(=O)N4CCC[C@H]4CN4CCCC4)c3c2)cc1 [Compound 237]
> 10	N#Cc1ccc(-c2ccc3nc(NCc4cc(C(F)(F)F)ccc4F)cc(C(=O)N4CCC[C@H]4CN4CCCC4)c3c2)cc1 [Compound 238]
> 10	N#Cc1ccc(-c2ccc3nc(NCc4ccc(F)cc4C(F)(F)F)cc(C(=O)N4CCC[C@H]4CN4CCCC4)c3c2)cc1 [Compound 239]
> 10	N#Cc1ccc(-c2ccc3nc(NCc4ccc(C(F)(F)F)cc4F)cc(C(=O)N4CCC[C@H]4CN4CCCC4)c3c2)cc1 [Compound 240]
> 10	N#Cc1ccc(-c2ccc3nc(NCc4cc(F)ccc4C(F)(F)F)cc(C(=O)N4CCC[C@H]4CN4CCCC4)c3c2)cc1 [Compound 241]
> 10	N#Cc1ccc(-c2ccc3nc(NCc4csc5ccc(Cl)cc45)cc(C(=O)N4CCC[C@H]4CN4CCCC4)c3c2)cc1 [Compound 242]
> 10	N#Cc1ccc(-c2ccc3nc(NCCc4ccc(Br)cc4)cc(C(=O)N4CCC[C@H]4CN4CCCC4)c3c2)cc1 [Compound 243]
> 10	CCN(Cc1ccc(C)cc1)c1cc(C(=O)N2CCC[C@H]2CN2CCCC2)c2cc(-c3ccc(C#N)cc3)ccc2n1 [Compound 244]
> 10	N#Cc1ccc(-c2ccc3nc(N4Cc5ccccc5C[C@H]4CO)cc(C(=O)N4CCC[C@H]4CN4CCCC4)c3c2)cc1 [Compound 245]
> 10	CN(Cc1cccc2ccccc12)c1cc(C(=O)N2CCC[C@H]2CN2CCCC2)c2cc(-c3ccc(C#N)cc3)ccc2n1 [Compound 246]
> 10	N#Cc1ccc(-c2ccc3nc(N(CCCCO)Cc4ccccc4)cc(C(=O)N4CCC[C@H]4CN4CCCC4)c3c2)cc1 [Compound 247]
> 10	CN(Cc1ccc(Cl)c(Cl)c1)c1cc(C(=O)N2CCC[C@H]2CN2CCCC2)c2cc(-c3ccc(C#N)cc3)ccc2n1 [Compound 248]
> 10	N#Cc1ccc(-c2ccc3nc(NNCc4ccccc4)cc(C(=O)N4CCC[C@H]4CN4CCCC4)c3c2)cc1 [Compound 249]
> 10	N#Cc1ccc(-c2ccc3nc(NCc4ccc(F)cc4Cl)cc(C(=O)N4CCC[C@H]4CN4CCCC4)c3c2)cc1 [Compound 250]
> 10	N#Cc1ccc(-c2ccc3nc(NCc4ccccc4-c4ccccc4)cc(C(=O)N4CCC[C@H]4CN4CCCC4)c3c2)cc1 [Compound 251]
> 10	N#Cc1ccc(-c2ccc3nc(NCc4ccc(-c5ccccc5)cc4)cc(C(=O)N4CCC[C@H]4CN4CCCC4)c3c2)cc1 [Compound 252]
> 10	N#Cc1ccc(-c2ccc3nc(N4CCCC4Cc4ccccc4)cc(C(=O)N4CCC[C@H]4CN4CCCC4)c3c2)cc1 (stereo partly drawn) [Compound 253]
> 10	N#Cc1ccc(-c2ccc3nc(N4CCC(c5ccccc5)C4)cc(C(=O)N4CCC[C@H]4CN4CCCC4)c3c2)cc1 (stereo partly drawn) [Compound 254]

IC50 [µM]	SMILES
> 10	N#Cc1ccc(-c2ccc3nc(N4CCOC(c5ccccc5)C4)cc(C(=O)N4CCC[C@H]4CN4CCCC4)c3c2)cc1 (stereo partly drawn) [Compound 255]
> 10	N#Cc1ccc(-c2ccc3nc(N4CCSC(c5ccccc5)C4)cc(C(=O)N4CCC[C@H]4CN4CCCC4)c3c2)cc1 (stereo partly drawn) [Compound 256]
> 10	N#Cc1ccc(-c2ccc3nc(N4CCCC4c4ccccc4)cc(C(=O)N4CCC[C@H]4CN4CCCC4)c3c2)cc1 (stereo partly drawn) [Compound 257]
> 10	N#Cc1ccc(-c2ccc3nc(N4CCC[C@@H]4c4ccccc4Cl)cc(C(=O)N4CCC[C@H]4CN4CCCC4)c3c2)cc1 [Compound 258]
> 10	N#Cc1ccc(-c2ccc3nc(N4CCCC4c4ccc(Cl)cc4)cc(C(=O)N4CCC[C@H]4CN4CCCC4)c3c2)cc1 (stereo partly drawn) [Compound 259]
> 10	N#Cc1ccc(-c2ccc3nc(NCC4(c5ccc(Cl)cc5)CC4)cc(C(=O)N4CCC[C@H]4CN4CCCC4)c3c2)cc1 [Compound 260]
> 10	N#Cc1ccc(-c2ccc3nc(N4CCC(c5ccc(Cl)cc5)C4)cc(C(=O)N4CCC[C@H]4CN4CCCC4)c3c2)cc1 (stereo partly drawn) [Compound 261]
> 10	N#Cc1ccc(-c2ccc3nc(N4CCC(c5ccccc5F)C4)cc(C(=O)N4CCC[C@H]4CN4CCCC4)c3c2)cc1 (stereo partly drawn) [Compound 262]
> 10	N#Cc1ccc(-c2ccc3nc(N4CCC(c5cccc(F)c5)C4)cc(C(=O)N4CCC[C@H]4CN4CCCC4)c3c2)cc1 (stereo partly drawn) [Compound 263]
> 10	N#Cc1ccc(-c2ccc3nc(N4CCC(c5ccc(F)cc5)C4)cc(C(=O)N4CCC[C@H]4CN4CCCC4)c3c2)cc1 (stereo partly drawn) [Compound 264]
> 10	N#Cc1ccc(-c2ccc3nc(N4CCCC(c5ccccc5)C4)cc(C(=O)N4CCC[C@H]4CN4CCCC4)c3c2)cc1 (stereo partly drawn) [Compound 265]
> 10	N#Cc1ccc(-c2ccc3nc(N4CCCC(c5ccc(C(F)(F)F)cc5)C4)cc(C(=O)N4CCC[C@H]4CN4CCCC4)c3c2)cc1 (stereo partly drawn) [Compound 266]
> 10	N#Cc1ccc(-c2ccc3nc(N4CCCC(c5ccccc5F)C4)cc(C(=O)N4CCC[C@H]4CN4CCCC4)c3c2)cc1 (stereo partly drawn) [Compound 267]
> 10	N#Cc1ccc(-c2ccc3nc(N4CCCC(c5cccc(F)c5)C4)cc(C(=O)N4CCC[C@H]4CN4CCCC4)c3c2)cc1 (stereo partly drawn) [Compound 268]
> 10	N#Cc1ccc(-c2ccc3nc(N4CCCC(c5cccc(C(F)(F)F)c5)C4)cc(C(=O)N4CCC[C@H]4CN4CCCC4)c3c2)cc1 (stereo partly drawn) [Compound 269]
> 10	N#Cc1ccc(-c2ccc3nc(NCc4cccs4)cc(C(=O)N4CCC[C@H]4CN4CCCC4)c3c2)cc1 [Compound 270]
> 10	Cc1ccsc1CNc1cc(C(=O)N2CCC[C@H]2CN2CCCC2)c2cc(-c3ccc(C#N)cc3)ccc2n1 [Compound 271]
> 10	N#Cc1ccc(-c2ccc3nc(NCC4(c5cccs5)CC4)cc(C(=O)N4CCC[C@H]4CN4CCCC4)c3c2)cc1 [Compound 272]
> 10	CN(CCc1cccs1)c1cc(C(=O)N2CCC[C@H]2CN2CCCC2)c2cc(-c3ccc(C#N)cc3)ccc2n1 [Compound 273]

IC50 [µM]	SMILES
> 10	O=C(c1cc(CCc2ccccc2)nc(CCc2ccccc2)c1)N1CCC[C@H]1CN1CCCC1 [Compound 274]
> 10	CN(Cc1ccccc1)c1cc(C(=O)N2CCC[C@H]2CN2CCCC2)cc(-c2ccccc2)n1 [Compound 275]
> 10	CN(Cc1ccccc1)c1cc(C(=O)N2CCC[C@H]2CN2CCCC2)cc(-c2ccc3c(c2)OCO3)n1 [Compound 276]
> 10	CCCCCCc1cc(C(=O)N2CCC[C@H]2CN2CCCC2)cc(N(C)Cc2ccccc2)n1 [Compound 277]
> 10	CN(Cc1ccccc1)c1cc(C(=O)N2CCC[C@H]2CN2CCCC2)cc(/C=C/c2ccc(C(F)(F)F)cc2)n1 [Compound 278]
> 10	CN(Cc1ccccc1)c1cc(C(=O)N2CCC[C@H]2CN2CCCC2)cc(/C=C/c2ccccc2)n1 [Compound 279]
< 1	O=C(c1cc(NCc2ccc(C(F)(F)F)cc2)nc2ccc(-c3ccc4c(c3)OCC4)cc12)N1CCC[C@H]1CN1CCCC1 [Compound 280]
< 1	O=C(c1cc(NCc2ccc(C(F)(F)F)cc2)nc2ccc(C#Cc3ccccc3)cc12)N1CCC[C@H]1CN1CCCC1 [Compound 281]
1 to 10	COc1ccc(C#Cc2ccc3nc(NCc4ccc(C(F)(F)F)cc4)cc(C(=O)N4CCC[C@H]4CN4CCCC4)c3c2)cc1 [Compound 282]
< 1	O=C(c1cc(NCc2ccc(C(F)(F)F)cc2)nc2ccc(C#Cc3ccc(Cl)cc3)cc12)N1CCC[C@H]1CN1CCCC1 [Compound 283]
< 1	O=C(c1cc(NCc2ccc(C(F)(F)F)cc2)nc2ccc(C#Cc3cccc(C(F)(F)F)c3)cc12)N1CCC[C@H]1CN1CCCC1 [Compound 284]
1 to 10	O=C(c1cc(NCc2ccc(C(F)(F)F)cc2)nc2ccc(CCc3ccccc3)cc12)N1CCC[C@H]1CN1CCCC1 [Compound 285]
< 1	O=C(c1cc(NCc2ccc(C(F)(F)F)cc2)nc2ccc(/C=C/c3ccc(Cl)cc3)cc12)N1CCC[C@H]1CN1CCCC1 [Compound 286]
1 to 10	O=C(c1cc(NCc2ccc(C(F)(F)F)cc2)nc2ccc(CCc3ccc(Cl)cc3)cc12)N1CCC[C@H]1CN1CCCC1 [Compound 287]
1 to 10	O=C(c1cc(NCc2ccc(C(F)(F)F)cc2)nc2ccc(/C=C/c3cccc(C(F)(F)F)c3)cc12)N1CCC[C@H]1CN1CCCC1 [Compound 288]
1 to 10	O=C(c1cc(NCc2ccc(C(F)(F)F)cc2)nc2ccc(CCc3cccc(C(F)(F)F)c3)cc12)N1CCC[C@H]1CN1CCCC1 [Compound 289]
1 to 10	O=C(c1cc(NCc2ccc(C(F)(F)F)cc2)nc2ccc(/C=C/c3ccccc3)cc12)N1CCC[C@H]1CN1CCCC1 [Compound 290]
> 10	CCCCc1ccc2nc(NCc3ccc(C(F)(F)F)cc3)cc(C(=O)N3CCC[C@H]3CN3CCCC3)c2c1 [Compound 291]
< 1	O=C(c1cc(NCc2ccc(C(F)(F)F)cc2)nc2ccc(-c3cc(Cl)cc(Cl)c3)cc12)N1CCC[C@H]1CN1CCCC1 [Compound 292]
